Values after ≈ are worked out from the molar mass of the structure shown. Where a name gives a salt, the structure may show the parent alone. Read-outs that look alike come from different tables or passages of the source.
Key:
[1] = not given; remark: listed apart in the source
[2] = target: histone deacetylase (HeLa nuclear extracts); experiment: In vitro assay for inhibition of histone deacetylase with fluorescent-labelled substrate (Fluor de Lys); assay type: biochemical; details: HeLa nuclear extracts 60 μg/ml, 75 μM substrate
Description: The in vitro assay for inhibition of histone deacetylase (see example C.1) measures the inhibition of HDAC enzymatic activity obtained with the compounds of formula (I).
The HDAC Fluorescent Activity Assay/Drug Discovery Kit of Biomol (cat. No: AK-500-0001) was used. The HDAC Fluorescent Activity Assay is based on the Fluor de Lys (Fluorogenic Histone deAcetylase Lysyl) substrate and developer combination. The Fluor de Lys substrate, comprises an acetylated lysine side chain. Deacetylation of the substrate sensitizes the substrate so that, in the second step, treatment with the Fluor de Lys developer produces a fluorophore.
HeLa nuclear extracts (supplier: Biomol) were incubated at 60 μg/ml with 75 μM of substrate. The Fluor de Lys substrate was added in a buffer containing 25 mM Tris, 137 mM NaCl, 2.7 mM KCl and 1 mM MgCl2.6H2O at pH 7.4. After 30 min, 1 volume of the developer was added. The fluorophore was excited with 355 nm light and the emitted light (450 nm) was be detected on a fluorometric plate reader.
For each experiment, controls (containing HeLa nuclear extract and buffer), a blank incubation (containing buffer but no HeLa nuclear extract) and samples (containing compound dissolved in DMSO and further diluted in buffer and HeLa nuclear extract) were run in parallel. In first instance, compounds were tested at a concentration of 10^−5M. […] All sample were tested 4 times. In each test the blank value was subtracted from both the control and the sample values. The control sample represented 100% of substrate deacetylation. For each sample the fluorescence was expressed as a percentage of the mean value of the controls. […] Herein the effects of test compounds are expressed as pIC50 (the negative log value of the IC50-value) (see Table F-2).

[3] = tested on: A2780 ovarian carcinoma cells; experiment: Antiproliferative activity on A2780 cells (MTT); assay type: cell-based; details: Homo sapiens, 96 h, four days of incubation, read-out: Cellular activity pIC50 C.2 (converted)
Description: Cellular activity of the compounds of formula (I) was determined on A2780 tumour cells using a colorimetric assay for cell toxicity or survival (Mosmann Tim, Journal of Immunological Methods 65: 55-63, 1983) (see example C.2).
All compounds tested were dissolved in DMSO and further dilutions were made in culture medium. Final DMSO concentrations never exceeded 0.1% (v/v) in cell proliferation assays. Controls contained A2780 cells and DMSO without compound and blanks contained DMSO but no cells. MTT was dissolved at 5 mg/ml in PBS. A glycine buffer comprised of 0.1 M glycine and 0.1 M NaCl buffered to pH 10.5 with NaOH (1N) was prepared (all reagents were from Merck).
The human A2780 ovarian carcinoma cells (a kind gift from Dr. T. C. Hamilton [Fox Chase Cancer Centre, Pennsylvania, USA]) were cultured in RPMI 1640 medium supplemented with 2 mM L-glutamine, 50 μg/ml gentamicin and 10% fetal calf serum. Cells were routinely kept as monolayer cultures at 37° C. in a humidified 5% CO2 atmosphere. Cells were passaged once a week using a trypsin/EDTA solution at a split ratio of 1:40. All media and supplements were obtained from Life Technologies. Cells were free of mycoplasma contamination as determined using the Gen-Probe Mycoplasma Tissue Culture kit (supplier: BioMérieux).
Cells were seeded in NUNC™ 96-well culture plates (Supplier: Life Technologies) and allowed to adhere to the plastic overnight. Densities used for plating were 1500 cells per well in a total volume of 200 μl medium. After cell adhesion to the plates, medium was changed and drugs and/or solvents were added to a final volume of 200 μl. Following four days of incubation, medium was replaced by 200 μl fresh medium and cell density and viability was assessed using an MTT-based assay. To each well, 25 μl MTT solution was added and the cells were further incubated for 2 hours at 37° C. The medium was then carefully aspirated and the blue MTT-formazan product was solubilized by addition of 25 μl glycine buffer followed by 100 μl of DMSO. […] Within an experiment, the results for each experimental condition are the mean of 3 replicate wells. For initial screening purposes, compounds were tested at a single fixed concentration of 10^−6 M. For active compounds, the experiments were repeated to establish full concentration-response curves. For each experiment, controls (containing no drug) and a blank incubation (containing no cells or drugs) were run in parallel. The blank value was subtracted from all control and sample values. For each sample, the mean value for cell growth (in absorbance units) was expressed as a percentage of the mean value for cell growth of the control. […] Herein the effects of test compounds are expressed as pIC50 (the negative log value of the IC50-value) (see Table F-2).

[4] = Solubility/stability at pH 2.3 (chemiluminescent nitrogen detector); assay type: physicochemical; details: pH 2.3, aqueous buffer; read-out: Solubility C.3.b. pH = 2.3
Description: The solubility of a compound measures the ability of a compound to stay in solution. In the first method, the ability of a compound to stay in aqueous solution upon dilution (see example C.3.a) is measured. DMSO-stock solutions are diluted with a single aqueous buffer solvent in different consecutive steps. In this method (C.3.a), mixtures are then scanned in the BD Gentest Solubility Scanner for the occurrence of precipitation. In the second method the solubility of a compound at different pH's can be measured with the use of a chemiluminescent nitrogen detector (see example C.3.b).
C.3.b. Solubility/Stability at pH 2.3
The solubility of a compound, at pH 2.3, can also be measured with the use of a chemiluminescent nitrogen detector (see Table F-2).

| SMILES | melting point [°C] | Enzymatic activity pIC50 C.1 [2] | IC50 [3] [µM] | further results |
| --- | --- | --- | --- | --- |
| CC(=O)NC(/C=C/c1ccccc1)CN1CCN(c2ncc(C(=O)NO)cn2)CC1 (stereo not drawn) (as salt: trifluoroacetic acid salt) (hydrate or solvate) [Compound 1] | 166 | – | – | – |
| O=C(NO)c1cnc(N2CCN(CC(/C=C/c3ccccc3)N3C(=O)CCC3=O)CC2)nc1 (stereo not drawn) (as salt: trifluoroacetic acid salt) (hydrate or solvate) [Compound 3] | 148 | – | – | – |
| O=C(NO)c1cnc(N2CCN(CC(/C=C/c3ccccc3)Oc3ccc(F)cc3)CC2)nc1 (stereo not drawn) (as salt: trifluoroacetic acid salt) (hydrate or solvate) [Compound 4] | 115 | – | – | – |
| NC(/C=C/c1ccccc1)CN1CCN(c2ncc(C(=O)NO)cn2)CC1 (stereo not drawn) (as salt: trifluoroacetic acid salt) [Compound 2] | 124 | – | – | – |
| COc1cc(N)c(Cl)cc1C(=O)NC1CCN(CCCOc2ccc(F)cc2)CC1OC (stereo not drawn) [Cisapride] | – | – | – | % metabolism ([1]; human, 15 min, 5 μM): 45% |
| O=C(NO)c1cnc(N2CCN(CC(/C=C/c3ccccc3)Oc3ccc(F)cc3)CC2)nc1 (stereo not drawn) [Compound 4] | – | 7.3 | 1.58 | – |
| CCCO [propanol] | – | – | – | % metabolism ([1]; after 15 min incubation with active microsomes, compound 5 μM): 25% |

The next lines start with results.

| melting point [°C] | Enzymatic activity pIC50 C.1 [2] | IC50 [3] [µM] | SMILES | further results |
| --- | --- | --- | --- | --- |
| – | 8.2 | 0.398 | CC(=O)NC(/C=C/c1ccccc1)CN1CCN(c2ncc(C(=O)NO)cn2)CC1 (stereo not drawn) [Compound 1] | solubility [4]: 2400 µg/mL (≈ 5.85 mM) |
| – | 8.2 | 0.0794 | NC(/C=C/c1ccccc1)CN1CCN(c2ncc(C(=O)NO)cn2)CC1 (stereo not drawn) [Compound 2] | solubility [4]: 3100 µg/mL (≈ 8.41 mM) |
| – | 7.5 | 7.94 | O=C(NO)c1cnc(N2CCN(CC(/C=C/c3ccccc3)N3C(=O)CCC3=O)CC2)nc1 (stereo not drawn) [Compound 3] | – |
| – | 7.0 | 5.01 | CS(=O)(=O)NC(/C=C/c1ccc(F)cc1)CN1CCN(c2ccc(C(=O)NO)cn2)CC1 (stereo not drawn) [Compound 6] | – |
